Test results from US5814638A, “Ophthalmic formulation for treating myopia comprising dopamine agonist and cyclodextrin” (LG Chemical Ltd., priority 1996, dated 1998).

Experiments:
[1] = cited from earlier work; for Stability with sodium acetate: Tris buffer pH 7.4, sodium acetate added; for Stability in Tris buffer: pH 7.4
[2] = mucoadhesive polymer, e.g., polycarbophil; cited from earlier work
[3] = in vivo; cited from earlier work
[4] = Solubility of dopamine agonists in 10 mM citrate buffer (pH 5) at 25° C. with or without HPCD; assay type: physicochemical
Method: (§1) The stability and solubility of dopamine agonists, i.e., bromocriptine(BCT), apomorphine(APO), pergolide(PER), and lisuride(LIS) were tested as follows.
(§2) For the stability test, solutions each containing 100 μg/ml of the dopamine agonist in 10 mM citrate buffer(pH 5) were incubated at 25° C. for 30 days with or without added 2-hydroxypropyl-β-cyclodextrin(HPCD, average molar substitution=0.8, average molecular weight=1500; 20 wt % based on the solution).
(§3) The amounts of the dopamine agonists in sample solutions of the stability and solubility tests were determined by HPLC method with fluorescence detector.
(§4) Each data point in FIGS. 1A and 1B represents the mean of two determinations and each value in FIG. 2 is the mean±SD(standard deviation) of three determinations. […] The addition of HPCD also bring about marked increases in the solubilities of the dopamine agonists; by a factor of 19 for bromocriptine, and two for apomorphine, pergolide, and lisuride.

form-deprivation myopia = details: daily intravitreal injections; young chickens; cited from earlier work
[5] = test system: eye of a young maturing animal; details: ocular administration; cited from earlier work
[6] = Stability of dopamine agonists in 10 mM citrate buffer (pH 5) at 25° C. with or without HPCD; assay type: physicochemical; details: 100 μg/ml, 10 mM citrate buffer pH 5, 25° C., 30 days, with vs without 20 wt % HPCD
Method: as §1, §2, §3, §4

[7] = in vivo; cited from earlier work; remark: listed apart in the source

NCCc1ccc(O)c(O)c1 [dopamine]
Stability with sodium acetate [1]: greatly enhanced
Stability in Tris buffer [1]: unstable

gentamicin
Penetration via the conjunctival-scleral pathway [2]: facilitated

2-hydroxypropyl-β-cyclodextrin
Tolerability when administered [3]: innocuous when administered

CN1CCc2cccc3c2[C@H]1Cc1ccc(O)c(O)c1-3 [apomorphine]
Stability with mercaptoethanol ([1]; 0.01% mercaptoethanol): stability of apomorphine is improved
Stability with sodium acetate [1]: greatly enhanced
Stability in Tris buffer [1]: unstable
Stability with antioxidants ([1]; water or plasma, ascorbic acid and sodium bisulfate): can be stabilized by the addition of antioxidants
Increase in solubility by addition of HPCD (factor) ([4]; pH 5): two
Effect on form-deprivation myopia (FDM) (form-deprivation myopia): block form-deprivation myopia
Inhibition of axial enlargement of the eye [5]: can inhibit, and in some cases completely prevent, the axial enlargement of the eye

CCCN1C[C@H](CSC)C[C@@H]2c3cccc4[nH]cc(c34)C[C@H]21 [pergolide]
Increase in solubility by addition of HPCD (factor) ([4]; pH 5): two

CC(C)C[C@H]1C(=O)N2CCC[C@H]2[C@]2(O)O[C@](NC(=O)[C@@H]3C=C4c5cccc6[nH]c(Br)c(c56)C[C@H]4N(C)C3)(C(C)C)C(=O)N12 [bromocriptine]
Effect of HPCD on stability [6]: significant increases in the stabilities

poly(vinyl alcohol)
Increase in the iris-ciliary body to plasma drug concentration ratio [7]: 52 fold

O=C(CCCN1CCC(O)(c2ccc(Cl)cc2)CC1)c1ccc(F)cc1 [haloperidol]
Inhibition of axial enlargement of the eye [5]: can inhibit, and in some cases completely prevent, the axial enlargement of the eye

CCN(CC)C(=O)N[C@H]1C=C2c3cccc4[nH]cc(c34)C[C@H]2N(C)C1 [lisuride]
Increase in solubility by addition of HPCD (factor) ([4]; 20 mg/ml, 10 mM citrate buffer pH 5, 25° C., 24 hours, 20 wt % HPCD vs none): two
Effect of HPCD on stability [6]: does not affect the stabilities

CCCC(=O)c1ccccc1 [butyrophenone]
Inhibition of axial enlargement of the eye [5]: can inhibit, and in some cases completely prevent, the axial enlargement of the eye
